This is an account of results in patent US6841561B1, “Dihydroorotate dehydrogenase inhibitors for the treatment of viral-mediated diseases” (priority 1999, dated 2005).

The test system of data set [1] is vesicular stomatitis virus. The data set can be described thus: microbe, parasite or virus in culture.
The test system of data set [2] is yellow fever virus. The data set is classed as cell-based.
Data set [3] deals with kunjin virus. The format is cell-based.
Data set [4] concerns kunjin virus. Nature of the data set: microbe, parasite or virus in culture. The note with it: West Nile virus. The data set is classed as cell-based.
Data set [5] deals with dengue virus. The data set can be described thus: microbe, parasite or virus in culture. The note with it: Vero. The format is cell-based.
Data set [6] has as its system yellow fever virus. Nature of the data set: microbe, parasite or virus in culture.
In data set [7] the test system is respiratory syncytial virus. The data set can be described thus: microbe, parasite or virus in culture. The note with it: human respiratory syncytial virus, Vero, read-out: ED50 RSV VERO. The data set is classed as cell-based.
Data set [8] concerns dengue virus. The data set is classed as cell-based.
Data set [9] deals with yellow fever virus. The data set can be described thus: in vitro.
Another data set has as its system VSV. The data set is classed as cell-based, vesicular stomatitis virus.
In data set [10] the test system is vesicular stomatitis virus. Nature of the data set: in vitro. The note with it: human.
For the next data set, the system named is hepatitis C. The note with it: patients with chronic hepatitis C; in combination with interferon; cited from earlier work.

Where “and” joins values, the source holds several entries; their conditions need not be identical. Equal values may be shown once. Read-outs that look alike come from different tables or passages of the source.

Regarding `Cc1nc2c(n1-c1ccc(Br)cc1)C(=O)c1ccccc1C2=O` [BNID, 1-(p-bromophenyl)-2-methyl-1H-naphth[2,3-d]imidazole-4,9-dione], the EC50 is 640 nM in data set [1] (Huh-7, read-out: ED50); 1150 nM with kunjin virus [4] (Huh-7, read-out: ED50); 1050 nM in the data set on kunjin virus [4] (Vero, read-out: ED50); 1250 nM in the data set with dengue virus [5] (read-out: ED50); 1150 nM in the data set on yellow fever virus [6] (Huh-7, read-out: ED50); 1250 nM in the data set on yellow fever virus [6] (Vero, read-out: ED50). Besides, the Fold enhancement in the data set with yellow fever virus [2] was 10 fold and 5 fold; in the data set on kunjin virus [3], 6 fold.
On to `Cc1c(-c2ccc(-c3ccccc3F)cc2)nc2ccc(F)cc2c1C(=O)[O-].[Na+]` [Brequinar, 6-fluoro-2-(2′-fluoro-1,1′-biphenyl-4-yl)-3-methyl-4′-quinolinecarboxylic acid sodium salt], for which the EC50 in data set [1] (Huh-7, read-out: ED50) was 14 nM; in [1] (Huh-7, read-out: ED50 VSV HuH7) it was 80 nM; in data set [7], 20 nM; with kunjin virus [4] (Huh-7, read-out: ED50), 30 nM; in the data set on kunjin virus [4] (Huh-7, read-out: ED50 KUN HuH7), 40 nM; in the data set with kunjin virus [4] (Vero, read-out: ED50), 20 nM. Besides, the EC50 in the data set on dengue virus [5] (read-out: ED50) stood at 20 nM; with dengue virus [5] (read-out: ED50 DEN VERO), 40 nM; in the data set on yellow fever virus [6] (Huh-7, read-out: ED50), 50 nM; in the data set with yellow fever virus [6] (Huh-7, read-out: ED50 YFV HuH7), 30 nM; with yellow fever virus [6] (Vero, read-out: ED50) it was 20 nM; in the data set with yellow fever virus [6] (Vero, read-out: ED50 YFV VERO) it was 20 nM. In addition, the Fold enhancement in the data set with dengue virus [8] is listed as 10 fold; in the data set with VSV it was 266 fold; in the data set with kunjin virus [3], 4.5 fold. For the same compound, the figures for the selectivity ratio (with yellow fever virus [9] (human); with yellow fever virus [9] (monkey); in data set [10]) were 60, 2670 and 2100, respectively.
With `O=C1C(O)=C(CC=C(Cl)Cl)C(=O)c2ccccc21` [Dichloroallyl lawsone, dichloroallyl lawsone], the EC50 in data set [1] (Huh-7, read-out: ED50) was found to be 490 nM; in the data set on kunjin virus [4] (Huh-7, read-out: ED50), 780 nM; in the data set on yellow fever virus [6] (Huh-7, read-out: ED50), 1100 nM; in the data set with yellow fever virus [6] (Vero, read-out: ED50), 900 nM.
For the compound `O=C(O)c1cc(-c2ccc(-c3ccccc3)cc2)nc2ccc(OC(F)(F)F)cc12` [I2K5, 2-(4-biphenylyl)-6-trifluoromethoxy-quinoline-4-carboxylic acid], the Fold enhancement in the data set with yellow fever virus [2] came to 3 fold. For the same compound, the EC50 in the data set on kunjin virus [4] (Huh-7, read-out: ED50 KUN HuH7) came to 2000 nM; in the data set on dengue virus [5] (read-out: ED50 DEN VERO), 800 nM; with yellow fever virus [6] (Huh-7, read-out: ED50 YFV HuH7), 1700 nM; in the data set on yellow fever virus [6] (Vero, read-out: ED50 YFV VERO), 800 nM.
In the case of `O=C(O)c1cc(-c2ccc(C3CCCCC3)cc2)nc2ccc(OC(F)(F)F)cc12` [I2K46, 2-(4-cyclohexylphenyl)-6-trifluoromethoxy-quinoline-4-carboxylic acid], the EC50 in the data set on kunjin virus [4] (Huh-7, read-out: ED50 KUN HuH7) was determined as 6300 nM; with yellow fever virus [6] (Huh-7, read-out: ED50 YFV HuH7), 5100 nM.
On to `COc1c(-c2cc(C(=O)O)c3cc(OC(F)(F)F)ccc3n2)ccc(OCc2ccccc2)c1C` [I2K51, 2-(4-benzyloxy-2-methoxy-3-methyl-phenyl)-6-trifluoromethoxy-quinoline-4-carboxylic acid], for which the EC50 in the data set on dengue virus [5] (read-out: ED50 DEN VERO) came out at 2600 nM; in the data set with yellow fever virus [6] (Vero, read-out: ED50 YFV VERO), 1300 nM.
On to `O=C(O)c1cc(-c2ccc(Oc3ccccc3)cc2)nc2ccc(OC(F)(F)F)cc12` [I2K52, 2-(4-phenoxyphenyl)-6-trifluoromethoxy-quinoline-4-carboxylic acid], for which the EC50 with kunjin virus [4] (Huh-7, read-out: ED50 KUN HuH7) was found to be 9600 nM; in the data set with yellow fever virus [6] (Huh-7, read-out: ED50 YFV HuH7) it was 11300 nM.
In the case of `Cc1c(-c2ccc(-c3ccccc3)cc2)nc2ccc(OC(F)(F)F)cc2c1C(=O)O` [I2K55, 2-(4-biphenylyl)-3-methyl-6-trifluoromethoxy-quinoline-4-carboxylic acid], the EC50 in the data set with kunjin virus [4] (Huh-7, read-out: ED50 KUN HuH7) is 5800 nM; in the data set with dengue virus [5] (read-out: ED50 DEN VERO) it was 11800 nM; in the data set with yellow fever virus [6] (Huh-7, read-out: ED50 YFV HuH7), 6100 nM; in the data set on yellow fever virus [6] (Vero, read-out: ED50 YFV VERO), 11800 nM.
On to `COc1cc(-c2ccc(Nc3ccccc3C(=O)O)c(OC)c2)ccc1Nc1ccccc1C(=O)O` [Redoxal], for which the EC50 is 630 nM in data set [1] (Huh-7, read-out: ED50); 520 nM in the data set with kunjin virus [4] (Huh-7, read-out: ED50); 390 nM with kunjin virus [4] (Vero, read-out: ED50); 390 nM in the data set on dengue virus [5] (read-out: ED50); 630 nM in the data set with yellow fever virus [6] (Huh-7, read-out: ED50); 250 nM in the data set with yellow fever virus [6] (Vero, read-out: ED50).
Regarding `NC(=O)c1ncn([C@@H]2O[C@H](CO)[C@@H](O)[C@H]2O)n1` [Ribavirin], the combined treatment efficacy entry in the data set with hepatitis C was “up to 40%”. Also, the EC50 in data set [1] (Huh-7, read-out: ED50) was 250000 nM; in data set [1] (MRC5, read-out: ED50), 120000 nM; in the data set with kunjin virus [4] (Huh-7, read-out: ED50), 60000 nM; in the data set with kunjin virus [4] (Vero, read-out: ED50), 309000 nM; in the data set on dengue virus [5] (read-out: ED50), 320000 nM; in the data set with yellow fever virus [6] (Huh-7, read-out: ED50), 34000 nM. The EC50 in the data set with yellow fever virus [6] (Vero, read-out: ED50) was 205000 nM. The selectivity ratio was 70 with yellow fever virus [9] (human) and 36 in the data set with yellow fever virus [9] (monkey).
